According to patent publication US20090047246A1, “NOVEL INHIBITORS OF HEPATITIS C VIRUS REPLICATION” (InterMune, Inc., priority 2007, published 2009):

Molecular target: T1, HCV NS3 helicase (Hepatitis C virus genotype 1b, UniProt P26663)
T1 construct: full-length NS3 (1-631), purified at Array BioPharma
Test: HCV Helicase Prompt FRET Assay (Example A)
Assay type: biochemical
Conditions: HCV NS3 helicase; tables do not say whether Example A or Example B assay; read-out: IC50 Activity
Description: Test compounds were diluted to 2.5 mM by adding 6 uL of a 10 mM solution of the compound to 18 uL of DMSO in a 384-well Costar polypropylene plate. Serial dilutions (2.5×) were performed in the plate using DMSO as the diluent. 1 ul of solution was transferred from each well to a new 384-well Costar polypropylene plate.
A 2× mixture was prepared containing 100 nM helicase substrate, 500 nM helicase capture strand (CS), and 600 μM ATP by diluting stock solutions with assay buffer consisting of 25 mM MOPS, pH 7.0, and 1.5 mM MgCl2, 0.005% (v/v) Triton X-100. Stock helicase substrate was prepared by annealing a FAM-labeled oligonucleotide to a BHQ-1 labeled oligonucleotide, which were both custom synthesized and HPLC-purified at Biosearch Technologies. The FAM-labeled and BHQ-labeled oligonucleotide had the following sequences:
The helicase capture strand was custom synthesized and purified at Integrated DNA Technologies. The helicase capture strand had the following sequence:
The ATP solution was prepared in MilliQ water, pH adjusted to approximately 7 with NaOH. ATP powder was obtained from Sigma (A-7699). The concentration was determined via A260 (ext. coeff=15,400 M^−1cm^−1).
11.5 μL of assay buffer was added to all wells of the plate containing luL of test compound. 5 μL of the Compound/assay buffer mixture was added to a black polystyrene 384-well Proxiplate. A 4× Enzyme solution was prepared by diluting enzyme stock containing full-length NS3 (1-631), purified at Array BioPharma, with assay buffer. 5 μL of the 4× Enzyme solution was added to the Proxiplate and incubated for 5 minutes (for control wells lacking enzyme, assay buffer was used instead). 10 μL of 2× substrate/CS/ATP mixture was then added to all wells of Proxiplate. The final assay conditions included 50 nM Substrate, 250 nM Capture Strand, 300 μM ATP, 5 or 6 nM Enzyme, and 2% (v/v) DMSO. The reaction proceeded for 70 cycles (˜30 min.) on an Envision at room temperature. The plate was read using the Envision (top mirror=FITC; Excitation filter=FITC 485; Emission filter=FITC 535). The fluorescence intensity was recorded for a total of 30 minutes. The initial rates of the reactions was calculated and used to calculate IC50 values. The IC50 curve fitting was performed using either a 4-parameter or 5-parameter logistic equation.

T1 sequence (P26663 1027-1657): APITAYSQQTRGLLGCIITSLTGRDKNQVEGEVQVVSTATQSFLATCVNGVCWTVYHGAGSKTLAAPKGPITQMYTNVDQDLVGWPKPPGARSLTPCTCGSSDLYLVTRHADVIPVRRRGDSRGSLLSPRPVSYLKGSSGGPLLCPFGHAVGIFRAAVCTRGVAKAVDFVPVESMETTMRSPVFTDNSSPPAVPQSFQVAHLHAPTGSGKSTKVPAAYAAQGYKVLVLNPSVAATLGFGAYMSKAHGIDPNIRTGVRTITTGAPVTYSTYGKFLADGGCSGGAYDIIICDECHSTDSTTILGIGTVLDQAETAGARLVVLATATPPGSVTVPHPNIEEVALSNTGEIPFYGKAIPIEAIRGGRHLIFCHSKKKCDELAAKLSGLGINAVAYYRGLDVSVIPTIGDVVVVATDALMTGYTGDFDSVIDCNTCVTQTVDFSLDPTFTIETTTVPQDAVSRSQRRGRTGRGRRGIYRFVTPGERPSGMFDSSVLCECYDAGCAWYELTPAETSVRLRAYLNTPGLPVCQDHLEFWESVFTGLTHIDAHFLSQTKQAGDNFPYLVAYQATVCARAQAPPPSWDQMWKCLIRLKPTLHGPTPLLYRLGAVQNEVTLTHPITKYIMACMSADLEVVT

Structure (SMILES)	IC50 [µM]
Cc1cc(NCc2ccccc2)ccc1-n1cc(CC(=O)O)c2ccccc21 [Example 173]	10 to 50
CCN(Cc1ccccc1)c1ccc(-n2nc(CC(=O)O)c3ccccc32)c(C)c1 [Example 175]	10 to 50
CN(Cc1cccnc1)c1ccc(-n2cc(CC(=O)O)c3ccccc32)cc1 [Example 180]	10 to 50
CCCNC(=O)Cc1cn(Cc2cccc(OCc3ccccc3)c2)c2ccc(Br)cc12 [Example 183]	10 to 50
O=C(Cc1cn(Cc2cccc(CCc3ccccc3)c2)c2ccc(Br)cc12)N1CCCC1 [Example 184]	10 to 50
O=C(Cc1cn(Cc2cccc(OCc3ccccc3)c2)c2ccc(Br)cc12)NCC1CC1 [Example 185]	10 to 50
CCNC(=O)Cc1cn(Cc2cccc(OCc3ccccc3)c2)c2ccc(OCc3ccccc3)cc12 [Example 186]	10 to 50
CC(C)CNC(=O)Cc1cn(Cc2cccc(OCc3ccccc3)c2)c2ccc(OCc3ccccc3)cc12 [Example 187]	10 to 50
O=C(Cc1cn(Cc2cccc(OCc3ccccc3)c2)c2ccc(OCc3ccccc3)cc12)N1CCCCC1 [Example 188]	10 to 50
O=C(Cc1cn(Cc2cccc(OCc3ccccc3)c2)c2ccc(OCc3ccccc3)cc12)N1CCCC1 [Example 189]	10 to 50
O=C(Cc1cn(Cc2cccc(OCc3ccccc3)c2)c2ccc(OCc3ccccc3)cc12)NCC1CC1 [Example 190]	10 to 50
CC1CCN(C(=O)Cc2cn(Cc3cccc(OCc4ccccc4)c3)c3ccc(OCc4ccccc4)cc23)C1 (stereo not shown) [Example 191]	10 to 50
O=C(NS(=O)(=O)C1CC1)c1cn(Cc2csc3ccc(Cl)cc23)c2ccccc12 [Example 196]	10 to 50
CCS(=O)(=O)NC(=O)Cc1cn(Cc2csc3ccc(Cl)cc23)c2ccccc12 [Example 197]	10 to 50
O=C(Cc1cn(Cc2csc3ccc(Cl)cc23)c2ccccc12)NS(=O)(=O)C1CC1 [Example 198]	10 to 50
O=C(Cc1cn(Cc2csc3ccc(Cl)cc23)c2ccccc12)NS(=O)(=O)c1ccccc1 [Example 199]	10 to 50
NC(=O)Cc1c(-c2ccccc2)n(Cc2csc3ccc(Cl)cc23)c2ccccc12 [Example 200]	10 to 50
O=C(Cn1cc(Cc2nnn[nH]2)c2ccccc21)N1CCN(Cc2ccccc2)CC1 [Example 205]	10 to 50
O=C(Cn1cc(Cc2nnn[nH]2)c2ccccc21)N1CCC(Cc2ccccc2)CC1 [Example 206]	10 to 50
N#CCc1cn(Cc2csc3ccc(Cl)cc23)c2ccc(CNS(=O)(=O)c3ccccc3)cc12 [Example 209]	10 to 50

Structure (SMILES)	IC50 [µM]
N#CCc1cn(Cc2csc3ccc(Cl)cc23)c2ccc(CNC(=O)c3ccccc3)cc12 [Example 211]	10 to 50
Oc1nnc(Cc2cn(Cc3csc4ccc(Cl)cc34)c3ccccc23)[nH]1 [Example 212]	10 to 50
Oc1cc(Cc2cn(Cc3csc4ccc(Cl)cc34)c3ccccc23)n[nH]1 [Example 213]	10 to 50
O=C(Cn1cc(Cc2nnn[nH]2)c2ccccc21)c1ccccc1 [Example 214]	10 to 50
CC(c1nnn[nH]1)c1cn(Cc2csc3ccc(Cl)cc23)c2ccccc12 (stereo not shown) [Example 215]	10 to 50
CC(C)(c1nnn[nH]1)c1cn(Cc2csc3ccc(Cl)cc23)c2ccccc12 [Example 216]	10 to 50
O=C(O)Cc1c(C(=O)c2ccc(-c3ccccc3)cc2)oc2ccccc12 [Example 223]	10 to 50
O=C(O)Cc1c(C(=O)c2cccc(-c3cccc(C(F)(F)F)c3)c2)[nH]c2ccccc12 [Example 225]	10 to 50
CCOc1cccc(-c2cccc(C(=O)c3[nH]c4ccccc4c3CC(=O)O)c2)c1 [Example 226]	10 to 50
CSc1cccc(-c2cccc(C(=O)c3[nH]c4ccccc4c3CC(=O)O)c2)c1 [Example 228]	10 to 50
COc1cccc(-c2cccc(C(=O)c3[nH]c4ccccc4c3CC(=O)O)c2)c1 [Example 229]	10 to 50
O=C(O)Cc1c(C(=O)c2cccc(-c3cccc(Cl)c3Cl)c2)[nH]c2ccccc12 [Example 230]	< 10
O=C(O)Cc1c(C(=O)c2cccc(-c3cc(Cl)cc(Cl)c3)c2)[nH]c2ccccc12 [Example 231]	< 10
O=C(O)Cc1c(C(=O)c2cccc(-c3cccc(Cl)c3)c2)[nH]c2ccccc12 [Example 232]	10 to 50
Cc1cc(C)cc(-c2cccc(C(=O)c3[nH]c4ccccc4c3CC(=O)O)c2)c1 [Example 233]	< 10
O=C(O)Cc1c(C(=O)c2cccc(-c3ccccc3Cl)c2)[nH]c2ccccc12 [Example 234]	10 to 50
O=C(O)Cc1c(C(=O)c2cccc(-c3ccc(CO)cc3)c2)[nH]c2ccccc12 [Example 235]	10 to 50
COc1ccc(-c2cccc(C(=O)c3[nH]c4ccccc4c3CC(=O)O)c2)cc1 [Example 236]	10 to 50
O=C(O)Cc1c(C(=O)c2cccc(-c3cccc(OC(F)(F)F)c3)c2)[nH]c2ccccc12 [Example 237]	10 to 50

The next lines start with the values.

IC50 [µM]	Structure (SMILES)
< 10	CCC(C)N(Cc1ccccc1)c1ccc(-n2cc(CC(=O)O)c3ccccc32)cc1 (stereo not shown) [Example 171]
< 10	CC(CO)N(Cc1ccccc1)c1ccc(-n2cc(CC(=O)O)c3ccccc32)cc1 (stereo not shown) [Example 172]
< 10	CCN(Cc1ccccc1)c1ccc(-n2cc(CC(=O)O)c3ccccc32)c(C)c1 [Example 174]
< 10	Cc1cccc(CN(C)c2ccc(-n3cc(CC(=O)O)c4ccccc43)cc2)c1 [Example 176]
< 10	COc1cccc(CN(C)c2ccc(-n3cc(CC(=O)O)c4ccccc43)cc2)c1 [Example 177]
< 10	CN(Cc1cccc(F)c1)c1ccc(-n2cc(CC(=O)O)c3ccccc32)cc1 [Example 178]
< 10	CN(Cc1cccc(Cl)c1)c1ccc(-n2cc(CC(=O)O)c3ccccc32)cc1 [Example 179]
< 10	Cc1ccccc1CN(C)c1ccc(-n2cc(CC(=O)O)c3ccccc32)cc1 [Example 181]
< 10	CN(Cc1ccccc1F)c1ccc(-n2cc(CC(=O)O)c3ccccc32)cc1 [Example 182]
< 10	CS(=O)(=O)NC(=O)Cc1cn(Cc2cccc(OCc3ccccc3)c2)c2ccc(OCc3ccccc3)cc12 [Example 192]
< 10	CCS(=O)(=O)NC(=O)Cc1cn(Cc2cccc(OCc3ccccc3)c2)c2ccc(OCc3ccccc3)cc12 [Example 193]
< 10	O=C(Cc1cn(Cc2cccc(OCc3ccccc3)c2)c2ccc(OCc3ccccc3)cc12)NS(=O)(=O)C1CC1 [Example 194]
< 10	O=C(Cc1cn(Cc2cccc(OCc3ccccc3)c2)c2ccc(OCc3ccccc3)cc12)NS(=O)(=O)c1ccccc1 [Example 195]
< 10	CSc1ccc2c(c1)c(CC(N)=O)cn2Cc1cccc(OCc2ccccc2)c1 [Example 201]
< 10	Clc1ccc2scc(Cn3cc(Cc4nnn[nH]4)c4ccccc43)c2c1 [Example 202]
< 10	c1ccc(-c2ccccc2Cn2cc(Cc3nnn[nH]3)c3ccccc32)cc1 [Example 203]
< 10	Clc1ccc2scc(Cn3c(-c4ccccc4)c(Cc4nnn[nH]4)c4ccccc43)c2c1 [Example 204]
< 10	O=C(NCc1ccc2c(c1)c(Cc1nn[nH]n1)cn2Cc1csc2ccc(Cl)cc12)OCc1ccccc1 [Example 207]
< 10	CC(C)(C)OC(=O)NCc1ccc2c(c1)c(Cc1nn[nH]n1)cn2Cc1csc2ccc(Cl)cc12 [Example 208]
< 10	O=S(=O)(NCc1ccc2c(c1)c(Cc1nn[nH]n1)cn2Cc1csc2ccc(Cl)cc12)c1ccccc1 [Example 210]
< 10	O=C(O)Cc1c(C(=O)c2ccccc2)n(Cc2csc3ccc(Cl)cc23)c2ccccc12 [Example 217]
< 10	O=C(O)Cc1c(C(=O)c2ccc(-c3ccccc3)cc2)n(CC2CC2)c2ccccc12 [Example 218]
< 10	O=C(O)Cc1c(C(=O)c2ccc(-c3ccccc3)cc2)n(Cc2ccccc2)c2ccccc12 [Example 219]
< 10	O=C(O)Cc1c(C(=O)c2ccc(-c3ccccc3)cc2)n(Cc2csc3ccc(Cl)cc23)c2ccccc12 [Example 220]
< 10	O=C(O)Cc1c(C(=O)c2cccc(Oc3ccccc3)c2)n(CC2CC2)c2ccccc12 [Example 221]
< 10	O=C(O)Cc1c(C(=O)c2cccc(Oc3ccccc3)c2)n(Cc2ccccc2)c2ccccc12 [Example 222]
< 10	O=C(O)Cc1c(C(=O)c2ccc(-c3ccccc3)cc2)sc2ccccc12 [Example 224]
< 10	CC(C)c1cccc(-c2cccc(C(=O)c3[nH]c4ccccc4c3CC(=O)O)c2)c1 [Example 227]
